From patent US4605654A, “2-(arylalkyloxymethyl)morpholines and the central nervous system compositions” (P. F. Medicament, priority 1984, dated 1986) come the findings set out here.

Structures can show the parent of a compound that is named as a salt. Where two headings read alike, the source gives them in different places.

Data set [1] relates to 5-HTP (5-hydroxytryptophan). Briefly: 5-HTP (5-hydroxytryptophan) potentiation test (Christensen et al.): head movements and tremors. The settings on record: for ED50: Mus musculus, 0.25 h; for activity in the 5-HTP potentiation test: in words. Type of data set: in vivo, mice. The protocol:
The mice receive an intravenous injection of 5-HTP (100 mg/10 ml/kg) after oral administration of the compounds to be studied (25 ml/kg). Fifteen minutes after the injection of 5-HTP, the presence and intensity of head movements and tremors are noted.

The test system of a further data set is nociceptive reactions. Briefly: Heating-plate test, analgesic activity (WOOLFE and MacDONALD). In kind it is in vivo. As to conditions: mouse, oral, 100 mg/kg; 30 min; plate 65° C. As for the experimental part: The products to be tested are administered to the mouse orally. 30 minutes later, the mice are placed on a plate brought to 65° C. The nociceptive reactions are assessed objectively in terms of the licking of the forepaws. The time for this response to appear is noted.
The method of calculation used is that described by HARRIS L. S. and PIERSON A. K. (1964, J. Pharmacol. Exp. Ther., 143, 141-148).

The next data set is described as follows: physchem. As to conditions: water.
[2] abbreviates: mice, oral, 5-HTP i.v. 100 mg/10 ml/kg, observed 15 min after 5-HTP, read-out: ED50.

Take `Cc1ccccc1COCC1CNCCO1` (stereo not drawn) [Example 5, 2-[(2-Methylbenzyloxy)methyl]morpholine hydrogen maleate]: the ED50 – broadly, the dose that gives a 50% effect, or the effect in half of the subjects – in data set [1] (setting [2]) is 16 mg/kg. Moreover, in data set [1] (mice, oral), the “activity in the 5-HTP potentiation test” value is on record as “activity”. The “PERCENTAGE ANALGESIA” value in the data set on nociceptive reactions was 20%.

For `CC(OCC1CNCCO1)c1ccccc1` (stereo not drawn) [Example 37, 2-[(1-Phenylethyloxy)methylmorpholine hydrogen oxalate], the solubility (as a rule, the dissolved amount per volume that the medium holds) in the data set “Solubility in water” is 50 mg/mL.

The compound `c1ccc(COCC2CNCCO2)cc1` (stereo not drawn) [Example 1, 2-(benzyloxymethyl)morpholine hydrogen maleate] gave a solubility in the data set “Solubility in water” of 100 mg/mL.

`CCC(=O)O[C@](Cc1ccccc1)(c1ccccc1)[C@H](C)CN(C)C` [Dextropropoxyphene, reference compound]: the “PERCENTAGE ANALGESIA” value with nociceptive reactions was found to be 15%.

As to `Nc1cccc(COCC2CNCCO2)c1.O=C(O)CCC(=O)O` (stereo not drawn) [Example 45, 2-[(3-Aminobenzyloxy)methyl]morpholine dihydrogen succinate], in “physchem”, the solubility amounted to 120 mg/mL.

Compound `Nc1ccc(COCC2CNCCO2)cc1` (stereo not drawn) [Example 44, 2-[(4-Aminobenzyloxy)methyl]morpholine dihydrogen succinate] had a solubility in “Solubility in water” of 60 mg/mL.

Compound `COc1ccccc1COCC1CNCCO1` (stereo not drawn) [Example 2, 2-[(2-Methoxybenzyloxy)methyl]morpholine hydrogen fumarate] came in with a solubility in “Solubility in water” of 50 mg/mL.

In turn, `Clc1ccc(COCC2CNCCO2)cc1Cl` (stereo not drawn) [Example 13, 2-[(3,4-Dichlorobenzyloxy)methyl]morpholine hydrogen maleate] returned a solubility in “Solubility in water” of 10 mg/mL.

On to `Cc1cccc(COCC2CNCCO2)c1` (stereo not drawn) [Example 6, 2-[(3-Methylbenzyloxy)methyl]morpholine hydrogen maleate], for which the solubility in “Solubility in water” is 30 mg/mL.

Turning to `Clc1ccc(COCC2CNCCO2)cc1` (stereo not drawn) [Example 10, 2-[(4-Chlorobenzyloxy)methyl]morpholine hydrogen maleate], in “Solubility in water”, the solubility stood at 60 mg/mL.

`Clc1ccccc1COCC1CNCCO1` (stereo not drawn) [Example 8, 2-[(2-Chlorobenzyloxy)methyl]morpholine hydrogen maleate] came in with a solubility in “Solubility in water” of 20 mg/mL. In addition, the ED50 in data set [1] (setting [2]) amounted to 15 mg/kg. For the same compound, the “activity in the 5-HTP potentiation test” value in data set [1] (mice, oral) was “activity”.

`Clc1ccc(COCC2CNCCO2)c(Cl)c1` (stereo not drawn) [Example 12, 2-[(2,4-Dichlorobenzyloxy)methyl]morpholine hydrogen maleate] returned a solubility in “Solubility in water” of 40 mg/mL.

With `Cc1ccc(COCC2CNCCO2)cc1` (stereo not drawn) [Example 7, 2-[(4-Methylbenzyloxy)methyl]morpholine hydrogen oxalate], in “Solubility in water”, the solubility was 20 mg/mL.

Regarding `Clc1cccc(COCC2CNCCO2)c1` (stereo not drawn) [Example 9, 2-[(3-Chlorobenzyloxy)methyl]morpholine hydrogen maleate], the solubility in “Solubility in water” stood at 20 mg/mL. Moreover, the ED50 in data set [1] (setting [2]) came to 15 mg/kg. Besides, in data set [1] (mice, oral), the “activity in the 5-HTP potentiation test” value is “activity”. Also, the “PERCENTAGE ANALGESIA” value in the data set with nociceptive reactions came to 16%.

As to `c1ccc2nc(N3CCNCC3)ccc2c1` [Quipazine, reference compound], in data set [1] (po), the ED50 stood at 15 mg/kg.

In the data set “Solubility in water”, `c1ccc(COc2ccc(COCC3CNCCO3)cc2)cc1` (stereo not drawn) [Example 42b, 2-[4-Benzyloxybenzyloxy)methyl]morpholine hydrogen oxalate] returned a solubility of 10 mg/mL.

`Fc1cccc(Cl)c1COCC1CNCCO1` (stereo not drawn) [Example 15, 2-[(2-Fluoro-6-chlorobenzyloxy)methyl]morpholine hydrogen maleate] came in with a solubility in “Solubility in water” of 30 mg/mL.

`COc1ccc(COCC2CNCCO2)cc1` (stereo not drawn) [Example 4, 2-[(4-methoxybenzyloxy)methyl]morpholine hydrogen oxalate] came in with a solubility in the data set “Solubility in water” of 40 mg/mL.

Regarding `Clc1cccc(Cl)c1COCC1CNCCO1` (stereo not drawn) [Example 14, 2-[(2,6-Dichlorobenzyloxy)methyl]morpholine hydrogen maleate], the solubility in “Solubility in water” turned out to be 50 mg/mL. For the same compound, the ED50 in data set [1] (setting [2]) was 18 mg/kg. Also, the “PERCENTAGE ANALGESIA” value in the data set with nociceptive reactions came out at 23%.

Compound `Oc1cccc(COCC2CNCCO2)c1` (stereo not drawn) [Example 43, 2-[(3-Hydroxybenzyloxy)methyl]morpholine hydrogen oxalate] displayed a solubility in the data set “Solubility in water” of 100 mg/mL.

In “Solubility in water”, `c1ccc2c(c1)OCC(COCC1CNCCO1)O2` (stereo not drawn) [Example 17, 2-{[(1,4-Benzodioxan-2-yl)methoxy]methyl}morpholine hydrogen maleate] showed a solubility of 100 mg/mL.

`COc1cccc(COCC2CNCCO2)c1` (stereo not drawn) [Example 3, 2-[(3-Methoxybenzyloxy)methyl]morpholine hydrogen maleate] showed a solubility in the data set “Solubility in water” of 10 mg/mL. Further, in data set [1] (setting [2]), the ED50 is 10 mg/kg. Further, the “activity in the 5-HTP potentiation test” value in data set [1] (mice, oral) was “activity”.

Turning to `O=C(O)C(=O)O.Oc1ccc(COCC2CNCCO2)cc1` (stereo not drawn) [Example 42, 2-[(4-Hydroxybenzyloxy)methyl]morpholine hydrogen oxalate], the solubility in “physchem” is 200 mg/mL.

As to “2-[(3-Phenylpropyloxy)methyl]morpholine hydrogen oxalate [Example 16]”, the “activity in the 5-HTP potentiation test” value in data set [1] (mice, oral) is given as “activity”.

`CCOc1ccccc1COCC1CNCCO1` (stereo not drawn) [Example 11, 2-[(2-Ethoxybenzyloxy)methyl]morpholine hydrogen maleate] showed a solubility in the data set “Solubility in water” of 30 mg/mL. Moreover, in data set [1] (setting [2]), the ED50 was determined as 15 mg/kg. In addition, the “activity in the 5-HTP potentiation test” value in data set [1] (mice, oral) is on record as “activity”. In the data set on nociceptive reactions, the “PERCENTAGE ANALGESIA” value came to 16%.
